Measured values as given in patent publication US20240294543A1, “CYCLOHEPTA-THIENO-DIAZEPINE DERIVATIVES AS GABA A GAMMA1 PAM” (Hoffmann-La Roche Inc., priority 2021, published 2024).
Read-outs that look alike come from different tables or passages of the source.

Experiments:
[1] = target: human GABAA α1β2γ1 receptor (Homo sapiens (Human), UniProt P14867+Q8N1C3); assay: Radioligand binding assay, competition for [3H]RO7239181, γ1-containing GABAA subtypes
[2] = target: human GABAA α5β2γ1 receptor (Homo sapiens (Human), UniProt P31644+Q8N1C3); assay: as above
[3] = membranes of HEK293F cells, [3H]RO7239181 20-30 nM, Table 1, read-out: Ki h-GABAA α1β2γ1
[4] = Ki h-GABAA α1β2γ1, membranes of HEK293F cells, [3H]RO7239181 20-30 nM, Table 1

SMILES | Ki [1, 3] | Ki [2] | Ki [1, 4] | Ki ([1]; Ki h-GABAA α1β2γ1, Table 3, reference compounds and examples)
C[C@@H]1N=C(c2c(F)cccc2F)c2c(sc3c2COC[C@H](C)O3)-n2nc(C(=O)N3CC(F)C3)nc21 [Example 40, [(7S,15S)-9-(2,6-difluorophenyl)-7,15-dimethyl-13,16-dioxa-18-thia-2,3,5,8-tetrazatetracyclo[8.8.0.02,6.011,17]octadeca-1(10),3,5,8,11(17)-pentaen-4-yl]-(3-fluoroazetidin-1-yl)methanone] | 286 nM | 2.65 nM | – | –
C[C@@H]1N=C(c2c(F)cccc2F)c2c(sc3c2COCCO3)-n2nc(C(=O)NCC(C)(C)O)nc21 [Example 45, (7S)-9-(2,6-difluorophenyl)-N-(2-hydroxy-2-methyl-propyl)-7-methyl-13,16-dioxa-18-thia-2,3,5,8-tetrazatetracyclo[8.8.0.02,6.011,17]octadeca-1(10),3,5,8,11(17)-pentaene-4-carboxamide] | 103 nM | 3.25 nM | – | –
C[C@@H]1N=C(c2c(F)cccc2F)c2c(sc3c2COCCO3)-n2nc(C(=O)NC[C@@](C)(O)C(F)(F)F)nc21 [Example 46, (7S)-9-(2,6-difluorophenyl)-7-methyl-N-[(2R)-3,3,3-trifluoro-2-hydroxy-2-methyl-propyl]-13,16-dioxa-18-thia-2,3,5,8-tetrazatetracyclo[8.8.0.02,6.011,17]octadeca-1(10),3,5,8,11(17)-pentaene-4-carboxamide] | – | 3.54 nM | 60 nM | –
C[C@@H]1N=C(c2c(F)cccc2F)c2c(sc3c2COCCO3)-n2nc(C(=O)NC[C@](C)(O)C(F)(F)F)nc21 [Example 47, (7S)-9-(2,6-difluorophenyl)-7-methyl-N-[(2S)-3,3,3-trifluoro-2-hydroxy-2-methyl-propyl]-13,16-dioxa-18-thia-2,3,5,8-tetrazatetracyclo[8.8.0.02,6.011,17]octadeca-1(10),3,5,8,11(17)-pentaene-4-carboxamide] | – | 4.43 nM | 93.4 nM | –
Cc1nnc2n1-c1sc3c(c1C(c1c(F)cccc1F)=N[C@H]2C)COCCC3 [Example 52, (7S)-9-(2,6-difluorophenyl)-3,7-dimethyl-13-oxa-18-thia-2,4,5,8-tetrazatetracyclo[8.8.0.02,6.011,17]octadeca-1(10),3,5,8,11(17)-pentaene] | – | 7.6 nM | 75.3 nM | 75.3 nM
Cc1nnc2n1-c1sc3c(c1C(c1c(F)cccc1Cl)=N[C@H]2C)COCCC3 [Example 61, (7S)-9-(2-chloro-6-fluoro-phenyl)-3,7-dimethyl-13-oxa-18-thia-2,4,5,8-tetrazatetracyclo[8.8.0.02,6.011,17]octadeca-1(10),3,5,8,11(17)-pentaene] | – | 4.98 nM | 49.1 nM | –
